# According to ChEMBL document CHEMBL1141558, “Design and synthesis of a siderophore conjugate as a potent PSMA inhibitor and potential diagnostic agent for prostate cancer” (Bioorg Med Chem, 2008):
# Tests used:
# [1] = biological target: T1, Glutamate carboxypeptidase 2 (Homo sapiens, UniProt Q04609); experiment: Inhibition of NAALADase expressed in LNCaP human prostate cancer cells; type: cell-based
# [2] = biological target: T1, Glutamate carboxypeptidase 2; experiment: Inhibition of human recombinant NAALADase
# T1 sequence (Q04609 whole entry): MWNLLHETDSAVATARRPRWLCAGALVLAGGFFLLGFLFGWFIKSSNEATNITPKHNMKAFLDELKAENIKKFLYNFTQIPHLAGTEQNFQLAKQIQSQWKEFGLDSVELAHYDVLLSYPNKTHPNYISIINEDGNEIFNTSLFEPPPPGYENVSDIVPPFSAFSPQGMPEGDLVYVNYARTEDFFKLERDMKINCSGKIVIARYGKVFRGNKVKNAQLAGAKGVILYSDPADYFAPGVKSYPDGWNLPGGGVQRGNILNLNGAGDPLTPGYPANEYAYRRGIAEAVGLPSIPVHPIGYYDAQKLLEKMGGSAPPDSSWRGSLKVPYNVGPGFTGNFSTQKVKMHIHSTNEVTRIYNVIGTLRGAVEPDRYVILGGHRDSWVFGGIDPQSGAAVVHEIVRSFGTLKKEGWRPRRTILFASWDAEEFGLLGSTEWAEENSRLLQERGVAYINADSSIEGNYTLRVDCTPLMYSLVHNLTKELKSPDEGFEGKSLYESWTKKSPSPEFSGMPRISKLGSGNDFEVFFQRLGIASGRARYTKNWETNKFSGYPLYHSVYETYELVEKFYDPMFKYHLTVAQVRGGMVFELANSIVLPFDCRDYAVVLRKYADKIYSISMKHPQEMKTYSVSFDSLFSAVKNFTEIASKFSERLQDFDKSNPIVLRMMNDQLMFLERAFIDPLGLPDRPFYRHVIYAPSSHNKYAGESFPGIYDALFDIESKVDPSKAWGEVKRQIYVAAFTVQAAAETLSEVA
IC50 [1] [nM],SMILES,IC50 [2] [nM]
12.5,O=C(O)CCC(CP(=O)(O)OCc1ccccc1)C(=O)O (configuration not stated),
,CC(=O)N[C@@H](CCCN(O)C(C)=O)C(=O)N[C@@H](CCCN(O)C(C)=O)C(=O)N[C@@H](CCCN(O)C(C)=O)C(=O)NCCCC(=O)c1ccc(C(=O)NCC(=O)Nc2ccc(CCOP(=O)(O)C[C@@H](CCC(=O)O)C(=O)O)cc2)cc1,4
